Test results from ChEMBL document CHEMBL4513135, “CO-ADD screening of IQOG CSIS (Spain) compounds”.
Converted amounts (≈) assume the structure as drawn.

Columns and labels:
Staphylococcus aureus = test: microbe, parasite or virus in culture; details: ATCC 43300, 18 h, ASSAY_TEST Inhibition of Bacterial Growth, detection method Absorption (OD600), MEDIA CAMHB, plate type 384well, NBS, CORNING #3640
Description: Antibacterial activity against Staphylococcus aureus MRSA ATCC 43300 (CO-ADD:GP_020); MIC in CAMBH media, using NBS plates, by OD(600)

Escherichia coli = test: microbe, parasite or virus in culture; details: ATCC 25922, 18 h, ASSAY_TEST Inhibition of Bacterial Growth, detection method Absorption (OD600), MEDIA CAMHB, plate type 384well, NBS, CORNING #3640
Description: Antibacterial activity against Escherichia coli ATCC 25922 (CO-ADD:GN_001); MIC in CAMBH media using NBS plates, by OD(600)

Pseudomonas aeruginosa = test: microbe, parasite or virus in culture; details: ATCC 27853, 18 h, ASSAY_TEST Inhibition of Bacterial Growth, detection method Absorption (OD600), MEDIA CAMHB, plate type 384well, NBS, CORNING #3640
Description: Antibacterial activity against Pseudomonas aeruginosa ATCC 27853 (CO-ADD:GN_042); MIC in CAMBH media using NBS plates, by OD(600)

Candida albicans = test: microbe, parasite or virus in culture; details: ATCC 90028, ASSAY_TEST Inhibition of Fungal Growth, detection method Absorption (OD530), plate type 384well, NBS, CORNING #3640
Description: Antifungal activity against Candida albicans ATCC 90028 (CO-ADD:FG_001); MIC in YNB media using NBS plates, by OD630

Acinetobacter baumannii = test: microbe, parasite or virus in culture; details: ATCC 19606, 18 h, ASSAY_TEST Inhibition of Bacterial Growth, detection method Absorption (OD600), MEDIA CAMHB, plate type 384well, NBS, CORNING #3640
Description: Antibacterial activity against Acinetobacter baumannii ATCC 19606 (CO-ADD:GN_034); MIC in CAMBH media using NBS plates, by OD600

HEK293 = test: cells; format: functional; details: Homo sapiens, ATCC CRL1573, HEK293; ASSAY_TEST Inhibition of Cell Viability; detection method Resazurin; Fluorescence (ex560/em590); MEDIA DMEM with 10% FBS; plate type 384well; TC; CORNING #3712; time 18 hr
Klebsiella pneumoniae = test: microbe, parasite or virus in culture; details: ATCC 700603, 18 h, ASSAY_TEST Inhibition of Bacterial Growth, detection method Absorption (OD600), MEDIA CAMHB, plate type 384well, NBS, CORNING #3640
Description: Antibacterial activity against Klebsiella pneumoniae MDR ATCC 70063 (CO-ADD:GN_003); MIC in CAMBH media using NBS plates, by OD(600)

Description for Cryptococcus neoformans: Antifungal activity against Cryptococcus neoformans H99 ATCC 208821 (CO-ADD:FG_002); MIC in YNB media using NBS plates, by Resazurin OD(600-570)

MIC (Staphylococcus aureus) [mg/L]	MIC (Escherichia coli) [mg/L]	MIC (Pseudomonas aeruginosa) [mg/L]	MIC (Candida albicans) [mg/L]	MIC (Acinetobacter baumannii) [mg/L]	MIC (Cryptococcus neoformans) [mg/L]	MIC (Klebsiella pneumoniae) [mg/L]	Structure (SMILES)	CC50 (HEK293) [mg/L]
> 32	> 32	> 32	> 32	> 32	> 32	> 32	N#Cc1c(N)nc(Sc2ccccc2)c(C#N)c1-c1ccccc1	> 32
> 32	> 32	> 32	> 32	> 32	> 32	> 32	CC#CCN(C)Cc1cc2cc(OCc3ccccc3)ccc2[nH]1.O=C(O)C(=O)O	> 32
> 32	> 32	> 32	> 32	> 32	> 32	> 32	Cc1ccc2nc(Cl)c(/C=N/Cc3ccccc3)cc2c1	> 32
> 32	> 32	> 32	> 32	> 32	> 32	> 32	N#CC1=C(N)Oc2c(ccc3ccccc23)C1c1ccc([N+](=O)[O-])cc1 (centres undefined)	0.259 (≈ 0.754 µM)
> 32	> 32	> 32	> 32	> 32	> 32	> 32	C#CCN(C)Cc1cc2cc(OCCCCC3CCN(Cc4ccccc4)CC3)ccc2n1C.Cl	> 32
> 32	> 32	> 32	> 32	> 32	32	> 32	C#CCN(C)c1nc(NCCCC2CCN(Cc3ccccc3)CC2)c(C#N)c(-c2ccccc2)c1C#N.Cl	8.06
> 32	> 32	> 32	32 (≈ 61.9 µM)	> 32	8 (≈ 15.5 µM)	> 32	C#CCN(C)c1nc(NCCCCC2CCN(Cc3ccccc3)CC2)c(C#N)c(-c2ccccc2)c1C#N	3.73 (≈ 7.22 µM)
> 32	> 32	> 32	> 32	> 32	32 (≈ 65.5 µM)	> 32	C#CCNc1nc(NCCCC2CCN(Cc3ccccc3)CC2)c(C#N)c(-c2ccccc2)c1C#N	16 (≈ 32.7 µM)
> 32	> 32	> 32	> 32	> 32	> 32	> 32	C#CCN(C)Cc1cc2cc(OCCCC3CCN(Cc4ccccc4)CC3)ccc2[nH]1.O=C(O)C(=O)O	13.4
> 32	> 32	> 32	> 32	> 32	> 32	> 32	C#CCNc1nc(NCCC2CCN(Cc3ccccc3)CC2)c(C#N)c(-c2ccccc2)c1C#N	11.3 (≈ 23.8 µM)
> 32	> 32	> 32	32	> 32	16	> 32	CC(C)(C)OC(=O)n1c(COC(=O)NC2CCN(Cc3ccccc3)CC2)cc2cc(OCc3ccccc3)ccc21.O=C(O)C(=O)O	9.19
> 32	> 32	> 32	> 32	> 32	> 32	> 32	C#CCNCc1cc2cc(OCc3ccccc3)ccc2[nH]1.Cl	4.04
> 32	> 32	> 32	32 (≈ 148 µM)	> 32	> 32	> 32	C#CCNc1nc(Cl)c(C#N)cc1C#N	22.4 (≈ 103 µM)
> 32	> 32	> 32	> 32	> 32	> 32	> 32	C#CCNc1nc(NCCCCC2CCN(Cc3ccccc3)CC2)c(C#N)c(-c2ccccc2)c1C#N	3.46 (≈ 6.88 µM)

Continued, molecule first:

Structure (SMILES)	MIC (Staphylococcus aureus) [mg/L]	MIC (Escherichia coli) [mg/L]	MIC (Pseudomonas aeruginosa) [mg/L]	MIC (Candida albicans) [mg/L]	MIC (Acinetobacter baumannii) [mg/L]	MIC (Cryptococcus neoformans) [mg/L]	MIC (Klebsiella pneumoniae) [mg/L]	CC50 (HEK293) [mg/L]
OCc1ccc(O)c2ncccc12	> 32	> 32	32 (≈ 183 µM)	16 (≈ 91.3 µM)	> 32	16 (≈ 91.3 µM)	> 32	17.3 (≈ 98.8 µM)
C=C=CCN(C)Cc1cc2cc(OCc3ccccc3)ccc2n1C.O=C(O)C(=O)O	> 32	> 32	> 32	> 32	> 32	> 32	> 32	1.61
N#Cc1c(N)[n+]([O-])c2ccccc2[n+]1[O-]	> 32	16 (≈ 79.1 µM)	> 32	> 32	> 32	> 32	> 32	> 32
Brc1nc(Br)c(Br)[nH]1	> 32	> 32	> 32	> 32	> 32	> 32	> 32	> 32
Cl.Nc1c2c(nc3[nH]c4ccccc4c13)CCCC2	> 32	> 32	16	> 32	> 32	> 32	> 32	4.74
Cn1ccnc1C1c2c(nc3c(c2N)CCCCC3)Oc2ccc3ccccc3c21 (centres undefined)	> 32	> 32	> 32	> 32	> 32	> 32	> 32	> 32
Nc1c2c(nc3c1CC(c1ccccc1)C(=O)N3)CCCC2 (centres undefined)	> 32	> 32	> 32	> 32	> 32	> 32	> 32	11.3 (≈ 38.5 µM)
O=C(CI)NCc1ccccc1	> 32	> 32	> 32	> 32	> 32	16 (≈ 58.2 µM)	> 32	8.25 (≈ 30 µM)
N#CC(C#N)=Cc1cccc([N+](=O)[O-])c1	> 32	> 32	32 (≈ 161 µM)	> 32	> 32	> 32	> 32	> 32
N#C/C(=C\c1ccc([N+](=O)[O-])cc1)C(=O)c1ccccc1	> 32	> 32	> 32	> 32	> 32	32 (≈ 115 µM)	> 32	> 32
Cc1ccc2nc(Cl)c(/C=N/O)cc2c1	> 32	> 32	> 32	> 32	> 32	> 32	> 32	> 32
Cl.Oc1ccc(CCl)c2cccnc12	4	> 32	32	16	> 32	1	> 32	2.26
Cc1ccc2nc(Cl)c(C=O)cc2c1	> 32	> 32	> 32	> 32	> 32	32 (≈ 156 µM)	> 32	24.1 (≈ 117 µM)
Cl.ClCc1ccncc1	> 32	> 32	> 32	32	> 32	> 32	> 32	> 32
